These are literature values, as cited in patent publication US20080139661A1, “Fragranted moistening fluids that destroy and/or inhibit the growth of biological organisms while minimizing a tacky build up” (Pitney Bowes Incorporated, priority 2006, published 2008).

For this data set the following is noted: at 20° C., typical value.

Each structure is given as a SMILES string.

For the compound `O` [Water], the surface tension entry is listed as “around 72 dynes/cm”.
